The CheMixHub ionic liquid set

Assay: xn = mol fraction of the nth substance listed
Conditions: 101 kPa

CCCCCCCCCCCCCCCC[n+]1ccccc1.O=C([O-])C(O)c1ccccc1 + NCC(=O)NCC(=O)O + O
electrical conductivity [S/m]
Conditions | 293.15 K | 298.15 K | 303.15 K | 308.15 K | 313.15 K
x1 = 1.08e-06, x2 = 0 | 0.00061 | 0.00068 | 0.00076 | 0.00083 | 0.0009
x1 = 1.09e-06, x2 = 0.001799 | 0.00287 | 0.00346 | 0.00413 | 0.0049 | 0.0058
x1 = 1.27e-06, x2 = 0.0009002 | 0.00184 | 0.0022 | 0.0026 | 0.0031 | 0.0036
x1 = 1.98e-06, x2 = 0 | 0.001 | 0.0012 | 0.0013 | 0.0014 | 0.0016
x1 = 2.19e-06, x2 = 0.001799 | 0.00326 | 0.00391 | 0.0046 | 0.0054 | 0.0064
x1 = 2.36e-06, x2 = 0.0009002 | 0.00226 | 0.00268 | 0.0031 | 0.0036 | 0.0042
x1 = 2.88e-06, x2 = 0 | 0.00147 | 0.0016 | 0.0018 | 0.002 | 0.0022
x1 = 3.26e-06, x2 = 0.0009002 | 0.00264 | 0.0031 | 0.0036 | 0.0042 | 0.0048
x1 = 3.46e-06, x2 = 0.001799 | 0.00367 | 0.00438 | 0.0051 | 0.006 | 0.007
x1 = 3.96e-06, x2 = 0 | 0.0019 | 0.0022 | 0.0024 | 0.0026 | 0.0029
x1 = 4.17e-06, x2 = 0.0009002 | 0.00301 | 0.0035 | 0.004 | 0.0046 | 0.0053
x1 = 4.56e-06, x2 = 0.001799 | 0.00407 | 0.00482 | 0.0056 | 0.0066 | 0.0076
x1 = 4.69e-06, x2 = 0 | 0.0023 | 0.0026 | 0.0029 | 0.0031 | 0.0035
x1 = 5.44e-06, x2 = 0.0009002 | 0.00346 | 0.004 | 0.0046 | 0.0053 | 0.006
x1 = 5.47e-06, x2 = 0.001799 | 0.00441 | 0.00521 | 0.0061 | 0.007 | 0.0082
x1 = 5.95e-06, x2 = 0 | 0.00281 | 0.0032 | 0.0035 | 0.0038 | 0.0042
x1 = 6.89e-06, x2 = 0.0009002 | 0.00401 | 0.00464 | 0.0053 | 0.006 | 0.0069
x1 = 6.93e-06, x2 = 0.001799 | 0.00487 | 0.00571 | 0.0066 | 0.0077 | 0.0089
x1 = 7.21e-06, x2 = 0 | 0.00341 | 0.0038 | 0.0042 | 0.0046 | 0.0051
x1 = 8.34e-06, x2 = 0.0009002 | 0.00451 | 0.0052 | 0.0059 | 0.0068 | 0.0077
x1 = 8.38e-06, x2 = 0.001799 | 0.00536 | 0.00626 | 0.0072 | 0.0084 | 0.0097
x1 = 8.83e-06, x2 = 0 | 0.00406 | 0.0046 | 0.005 | 0.0055 | 0.006
x1 = 9.97e-06, x2 = 0.0009002 | 0.00504 | 0.00579 | 0.0066 | 0.0075 | 0.0085
x1 = 1.002e-05, x2 = 0.001799 | 0.00583 | 0.0068 | 0.0078 | 0.009 | 0.0104
x1 = 1.045e-05, x2 = 0 | 0.00469 | 0.0053 | 0.0058 | 0.0065 | 0.0071
x1 = 1.142e-05, x2 = 0.0009002 | 0.00547 | 0.00629 | 0.0071 | 0.0081 | 0.0092
x1 = 1.166e-05, x2 = 0.001799 | 0.0062 | 0.00723 | 0.0083 | 0.0096 | 0.011
x1 = 1.207e-05, x2 = 0 | 0.00516 | 0.0058 | 0.0064 | 0.0071 | 0.0079
x1 = 1.287e-05, x2 = 0.0009002 | 0.00582 | 0.00669 | 0.0076 | 0.0086 | 0.0098
x1 = 1.312e-05, x2 = 0.001799 | 0.0066 | 0.00763 | 0.0088 | 0.0101 | 0.0117
x1 = 1.351e-05, x2 = 0 | 0.00562 | 0.00631 | 0.007 | 0.0077 | 0.0085
x1 = 1.414e-05, x2 = 0.0009002 | 0.00617 | 0.00708 | 0.008 | 0.0091 | 0.0103
x1 = 1.476e-05, x2 = 0.001799 | 0.00697 | 0.0081 | 0.0093 | 0.0107 | 0.0122
x1 = 1.478e-05, x2 = 0 | 0.00603 | 0.0068 | 0.0075 | 0.0083 | 0.0092
x1 = 1.54e-05, x2 = 0.0009002 | 0.00651 | 0.0075 | 0.0084 | 0.0096 | 0.0108
x1 = 1.622e-05, x2 = 0 | 0.00644 | 0.0072 | 0.008 | 0.0089 | 0.0098
x1 = 1.622e-05, x2 = 0.001799 | 0.00735 | 0.0084 | 0.0097 | 0.0112 | 0.0128
x1 = 1.667e-05, x2 = 0.0009002 | 0.00687 | 0.0079 | 0.0089 | 0.0101 | 0.0114
x1 = 1.75e-05, x2 = 0.001799 | 0.00771 | 0.0088 | 0.0102 | 0.0117 | 0.0133
x1 = 1.766e-05, x2 = 0 | 0.00687 | 0.0077 | 0.0085 | 0.0094 | 0.0104
